Where two headings read alike, the source gives them in different places. Starred links: 1 amine or outer side, 2 acyl side, 3 side chain; linkers in the order of their positions; H or OH if unused. Non-standard residues stand in square brackets, D forms with d. Residues, ends and D or L forms follow the SMILES beside them. *: point of attachment. Me3N+(CH2)2O(CH2)2O(CH2)2CO = C[N+](C)(C)CCOCCOCCC(=O)*; Trp(7-Me) = Cc1cccc2c(C[C@H](N)C(=O)O)c[nH]c12; C20 diacid = O=C(O)CCCCCCCCCCCCCCCCCCC(=O)*; d(γGlu) = O=C(O)[C@@H](CCC(=O)[*:2])N[*:1]; C18 diacid = O=C(O)CCCCCCCCCCCCCCCCC(=O)*; γGlu = O=C(O)[C@H](CCC(=O)[*:2])N[*:1]; NMeH = CN[C@@H](Cc1c[nH]cn1)C(=O)O; X1 = O=C(CC1(N[*:1])CCC1)[*:2]; X2 = O=C(CC1(N[*:1])CC1)[*:2]; Nle = CCCC[C@H](N)C(=O)O; β3hA = C[C@H](N)CC(=O)O; Dap = NC[C@H](N)C(=O)O; AEEA = NCCOCCOCC(=O)O; βAla = NCCC(=O)O
How the values were obtained:
[1] = Pharmacokinetics after intravenous peptide administration in mice; set-up: species or system C57BL/6 mice; conditions: in vivo
Description: GPR-10 and peptides were dosed IV at 2 mg/kg as a formulation of 0.4 mg/mL in […]+65% water (pH 6-7).

[2] = target: T1, human GRP receptors (Homo sapiens, UniProt P30550); test: IP1 GRPR activity: HTRF IP1-Gq assay in U2OS cells stably expressing human GRP receptors; format: cell-based; conditions: 90 minutes incubation, read-out: hIP1 GRPR EC50
T1 construct: host or cells: U2OS
Description: U2OS cells stably expressing human GRP receptors (DiscoverX, #93-0229C3) were cultured according to manufacturer's instructions. Cells were cultured to […], then collected using AccuTase (Innovative Cell Technologies, #AT104). Cells were washed and plated on a poly-D-lysine-coated 384-well plate (ThermoFisher, #A3890401) at a density of 2,500 cells/well in […] assay buffer (AssayComplete Cell Plating 5 Reagent, DiscoverX #93-0563R5), then incubated overnight at 37° C. and 5% C02. The following morning, a homogenous time-resolved fluorescence (HTRF) assay was performed in a 384-well plate format using the IP1-Gq assay kit (Cisbio, 62IPAPEB). Test compounds were made as a stock in DMSO, then serially diluted to generate 10-point dose response curves in IP1 stimulation buffer. Five microliters of the prepared compounds were then added to the plate containing cells and assay buffer in duplicate, and the cells were incubated at 37° C. and 5% CO2 for 90 minutes. Following compound incubation, […] of IP1 lysis/detection buffer (prepared according to manufacturer's instructions) was added to each well, and the plates were incubated at room temperature for 1 hour. HTRF signals were measured using a plate reader (ClarioSTAR), calculating the ratio between emissions at 665 nm and 620 nm (HTRF ratio). HTRF ratio for positive (Max, […]; SEQ ID NO. 45) and negative (Min, DMSO) controls were used to normalize HTRF data and generate values for % activity. EC50 and Max activity values were determined using a standard 4-parameter fit using GraphPad Prism.

[3] = mouse, C57BL/6 mice, IV 2 mg/kg, formulation of 0.4 mg/mL, read-out: T1/2 (converted)
[4] = mouse, C57BL/6 mice, IV 2 mg/kg, formulation of 0.4 mg/mL, read-out: CL

T1 sequence (P30550 whole entry): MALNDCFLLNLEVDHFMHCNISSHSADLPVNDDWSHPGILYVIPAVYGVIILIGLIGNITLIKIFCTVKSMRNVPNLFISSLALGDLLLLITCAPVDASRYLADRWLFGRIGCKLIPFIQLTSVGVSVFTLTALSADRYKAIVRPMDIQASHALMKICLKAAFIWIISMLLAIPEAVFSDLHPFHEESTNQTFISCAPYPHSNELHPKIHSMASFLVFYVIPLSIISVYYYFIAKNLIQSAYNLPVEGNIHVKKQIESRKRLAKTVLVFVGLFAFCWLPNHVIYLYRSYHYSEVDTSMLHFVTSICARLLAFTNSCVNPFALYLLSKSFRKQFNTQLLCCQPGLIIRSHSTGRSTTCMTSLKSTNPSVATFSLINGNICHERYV

Molecule `CSCC[C@H](NC(=O)[C@H](CC(C)C)NC(=O)[C@H](Cc1cnc[nH]1)NC(=O)CNC(=O)[C@@H](NC(=O)[C@H](C)NC(=O)[C@H](Cc1c[nH]c2ccccc12)NC(=O)[C@H](Cc1cnc[nH]1)NC(=O)[C@H](CC(N)=O)NC(=O)CN)C(C)C)C(N)=O` [GRP10, G-N-H-W-A-V-G-H-L-M-NH2, reference compound] has a clearance ([1]; C57BL/6, mouse, iv, 2 mg/kg) of 4540 mL/min/kg and a half-life ([1]; C57BL/6, mouse, iv, 2 mg/kg) of 0.3 h.
`CCCC[C@H](NC(=O)[C@H](CC(C)C)NC(=O)[C@H](Cc1c[nH]cn1)NC(=O)[C@@H](C)NC(=O)[C@@H](NC(=O)[C@H](C)NC(=O)[C@H](Cc1c[nH]c2ccccc12)NC(=O)[C@H](Cc1c[nH]cn1)NC(=O)[C@H](CC(N)=O)NC(=O)CN)C(C)C)C(N)=O` [Peptide 6, Gly-Asn-His-Trp-Ala-Val-D-Ala-His-Leu-Nle-NH2] gave a half-life [1, 3] of under 0.1 h.
With `CCCCCCCCCCCCCCCC(=O)N[C@H](CCC(=O)NCCOCCOCC(=O)NCCOCCOCC(=O)NCC(=O)N[C@@H](CC(N)=O)C(=O)N[C@@H](Cc1c[nH]cn1)C(=O)N[C@@H](Cc1c[nH]c2ccccc12)C(=O)N[C@@H](C)C(=O)N[C@H](C(=O)NCC(=O)N[C@@H](Cc1c[nH]cn1)C(=O)N[C@@H](CC(C)C)C(=O)N[C@@H](CCSC)C(N)=O)C(C)C)C(=O)O` [Peptide 8, Palmitoyl-D-γGlu-OEG-OEG-Gly-Asn-His-Trp-Ala-Val-Gly-His-Leu-Met-NH2] the clearance [1, 4] was 1.2 mL/min/kg and the half-life [1, 3] was 2 h.
Work on `CCCC[C@H](NC(=O)[C@H](CC(C)C)NC(=O)[C@H](Cc1c[nH]cn1)NC(=O)[C@@H](C)NC(=O)[C@@H](NC(=O)[C@H](C)NC(=O)[C@H](Cc1c[nH]c2ccccc12)NC(=O)[C@H](Cc1c[nH]cn1)NC(=O)[C@H](CC(N)=O)NC(=O)CNC(=O)COCCOCCNC(=O)COCCOCCNC(=O)CC[C@@H](NC(=O)CCCCCCCCCCCCCCCCC(=O)O)C(=O)O)C(C)C)C(N)=O` [Peptide 9, Octadecanedioyl-D-γGlu-OEG-OEG-Gly-Asn-His-Trp-Ala-Val-D-Ala-His-Leu-Nle-NH2] ({C18 diacid-d(γGlu)-AEEA-AEEA}-GNHWAV[dA]HL[Nle]-NH2) yielded a clearance [1, 4] of 0.5 mL/min/kg and a half-life [1, 3] of 5.7 h.
In the case of `CCCC[C@H](NC(=O)[C@H](CC(C)C)NC(=O)[C@H](Cc1c[nH]cn1)NC(=O)[C@@H](C)NC(=O)[C@@H](NC(=O)[C@H](C)NC(=O)[C@H](Cc1c[nH]c2ccccc12)NC(=O)[C@H](Cc1c[nH]cn1)NC(=O)[C@H](CC(N)=O)NC(=O)[C@H](CCCNC(=N)N)NC(=O)COCCOCCNC(=O)COCCOCCNC(=O)CC[C@H](NC(=O)CCCCCCCCCCCCCCCCC(=O)O)C(=O)O)C(C)C)C(=O)O` [Peptide 156, Octadecanedioyl-γGlu-OEG-OEG-Arg-Asn-His-Trp-Ala-Val-D-Ala-His-Leu-Nle] ({C18 diacid-γGlu-AEEA-AEEA}-RNHWAV[dA]HL[Nle]-OH), the EC50 [2] is reported as 358 nM.
Work on `CCCC[C@H](NC(=O)[C@H](CC(C)C)NC(=O)[C@H](Cc1c[nH]cn1)NC(=O)CCNC(=O)[C@@H](NC(=O)[C@H](C)NC(=O)[C@H](Cc1c[nH]c2c(C)cccc12)NC(=O)[C@H](Cc1c[nH]cn1)NC(=O)[C@H](CCCNC(=N)N)NC(=O)CNC(=O)[C@H](CCC(=O)O)NC(=O)COCCOCCNC(=O)COCCOCCNC(=O)CC[C@H](NC(=O)CC[C@H](NC(=O)CCCCCCCCCCCCCCCCCCC(=O)O)C(=O)O)C(=O)O)C(C)C)C(N)=O` [Peptide 252, Eicosanedioyl-γGlu-γGlu-OEG-OEG-Glu-Gly-Arg-His-7MeTrp-Ala-Val-β-Ala-His-Leu-Nle-NH2] ({C20 diacid-γGlu-γGlu-AEEA-AEEA}-EGRH[Trp(7-Me)]AV[βAla]HL[Nle]-NH2) yielded a clearance [1, 4] of 0.12 mL/min/kg, a half-life [1, 3] of 6.6 h and an EC50 [2] of 7.5 nM.
With `CCCC[C@H](NC(=O)[C@H](CC(C)C)NC(=O)[C@H](Cc1c[nH]cn1)NC(=O)CCNC(=O)[C@@H](NC(=O)[C@H](C)NC(=O)[C@H](Cc1c[nH]c2c(C)cccc12)NC(=O)[C@H](Cc1c[nH]cn1)NC(=O)[C@H](CCCNC(=N)N)NC(=O)CNC(=O)[C@H](CO)NC(=O)COCCOCCNC(=O)COCCOCCNC(=O)CC[C@H](NC(=O)CC[C@H](NC(=O)CCCCCCCCCCCCCCCCCCC(=O)O)C(=O)O)C(=O)O)C(C)C)C(N)=O` [Peptide 256, Eicosanedioyl-γGlu-Glu-OEG-OEG-Ser-Gly-Arg-His-7MeTrp-Ala-Val-β-Ala-His-Leu-Nle-NH2] ({C20 diacid-γGlu-γGlu-AEEA-AEEA}-SGRH[Trp(7-Me)]AV[βAla]HL[Nle]-NH2) the EC50 [2] was 3.7 nM.
`CCCC[C@H](NC(=O)[C@H](CC(C)C)NC(=O)[C@H](Cc1c[nH]cn1)NC(=O)CCNC(=O)[C@@H](NC(=O)[C@H](C)NC(=O)[C@H](Cc1c[nH]c2c(C)cccc12)NC(=O)[C@H](Cc1c[nH]cn1)NC(=O)[C@H](CCC(N)=O)NC(=O)[C@H](CO)NC(=O)[C@H](CCC(=O)O)NC(=O)COCCOCCNC(=O)COCCOCCNC(=O)CC[C@H](NC(=O)CC[C@H](NC(=O)CCCCCCCCCCCCCCCCCCC(=O)O)C(=O)O)C(=O)O)C(C)C)C(N)=O` [Peptide 257, Eicosanedioyl-γGlu-γGlu-OEG-OEG-Glu-Ser-Gln-His-7MeTrp-Ala-Val-β-Ala-His-Leu-Nle-NH2] ({C20 diacid-γGlu-γGlu-AEEA-AEEA}-ESQH[Trp(7-Me)]AV[βAla]HL[Nle]-NH2) gave a clearance [1, 4] of 0.09 mL/min/kg and a half-life [1, 3] of 9.4 h.
`CCCC[C@H](NC(=O)[C@H](CC(C)C)NC(=O)[C@H](Cc1c[nH]cn1)NC(=O)C[C@H](C)NC(=O)[C@@H](NC(=O)[C@H](C)NC(=O)[C@H](Cc1c[nH]c2c(C)cccc12)NC(=O)[C@H](Cc1c[nH]cn1)NC(=O)[C@H](CC(N)=O)NC(=O)CNC(=O)COCCOCCNC(=O)COCCOCCNC(=O)CC[C@H](NC(=O)CC[C@H](NC(=O)CCCCCCCCCCCCCCCCCCC(=O)O)C(=O)O)C(=O)O)C(C)C)C(N)=O` [Peptide 258, Eicosanedioyl-γGlu-γGlu-OEG-OEG-Gly-Asn-His-7MeTrp-Ala-Val-BABA-His-Leu-Nle-NH2] ({C20 diacid-γGlu-γGlu-AEEA-AEEA}-GNH[Trp(7-Me)]AV[β3hA]HL[Nle]-NH2) gave an EC50 [2] of 6 nM.
`CCCC[C@H](NC(=O)[C@H](CC(C)C)NC(=O)[C@H](Cc1c[nH]cn1)NC(=O)CCNC(=O)[C@@H](NC(=O)[C@H](C)NC(=O)[C@H](Cc1c[nH]c2ccccc12)NC(=O)[C@H](Cc1c[nH]cn1)NC(=O)[C@H](CNC(=O)CCOCCOCC[N+](C)(C)C)NC(=O)CNC(=O)COCCOCCNC(=O)COCCOCCNC(=O)CC[C@H](NC(=O)CCCCCCCCCCCCCCCCCCC(=O)O)C(=O)O)C(C)C)C(N)=O` [Peptide 262, Eicosanedioyl-γGlu-OEG-OEG-Gly-Dap(2CE-PEG-TMEA)-His-Trp-Ala-Val-β-Ala-His-Leu-Nle-NH2] ({C20 diacid-γGlu-AEEA-AEEA}-G[Dap](Me3N+(CH2)2O(CH2)2O(CH2)2CO)HWAV[βAla]HL[Nle]-NH2) gave an EC50 [2] of 4 nM.
In the case of `CCCC[C@H](NC(=O)[C@H](CC(C)C)NC(=O)[C@H](Cc1cnc[nH]1)N(C)C(=O)C[C@H](C)NC(=O)[C@@H](NC(=O)[C@H](C)NC(=O)[C@H](Cc1c[nH]c2c(C)cccc12)NC(=O)[C@H](Cc1c[nH]cn1)NC(=O)[C@H](CCC(N)=O)NC(=O)CNC(=O)COCCOCCNC(=O)COCCOCCNC(=O)CC[C@H](NC(=O)CC[C@H](NC(=O)CCCCCCCCCCCCCCCCCCC(=O)O)C(=O)O)C(=O)O)C(C)C)C(N)=O` [Peptide 270, Eicosanedioyl-γGlu-γGlu-OEG-OEG-Gly-Gln-His-7MeTrp-Ala-Val-BABA-NMeHis-Leu-Nle-NH2] ({C20 diacid-γGlu-γGlu-AEEA-AEEA}-GQH[Trp(7-Me)]AV[β3hA][NMeH]L[Nle]-NH2), the EC50 [2] is reported as 3.8 nM.
Molecule `CCCC[C@H](NC(=O)[C@H](CC(C)C)NC(=O)[C@H](Cc1c[nH]cn1)NC(=O)CC1(NC(=O)[C@@H](NC(=O)[C@H](C)NC(=O)[C@H](Cc2c[nH]c3ccccc23)NC(=O)[C@H](Cc2c[nH]cn2)NC(=O)[C@H](CCC(N)=O)NC(=O)CNC(=O)COCCOCCNC(=O)COCCOCCNC(=O)CC[C@H](NC(=O)CC[C@H](NC(=O)CCCCCCCCCCCCCCCCCCC(=O)O)C(=O)O)C(=O)O)C(C)C)CC1)C(N)=O` [Peptide 272, Eicosanedioyl-γGlu-γGlu-OEG-OEG-Gly-Gln-His-Trp-Ala-Val-ACPA-His-Leu-Nle-NH2] ({C20 diacid-γGlu-γGlu-AEEA-AEEA}-GQHWAV[X2]HL[Nle]-NH2) has an EC50 [2] of 6 nM.
`CCCC[C@H](NC(=O)[C@H](CC(C)C)NC(=O)[C@H](Cc1c[nH]cn1)NC(=O)CC1(NC(=O)[C@@H](NC(=O)[C@H](C)NC(=O)[C@H](Cc2c[nH]c3ccccc23)NC(=O)[C@H](Cc2c[nH]cn2)NC(=O)[C@H](CCC(N)=O)NC(=O)CNC(=O)COCCOCCNC(=O)COCCOCCNC(=O)CC[C@H](NC(=O)CC[C@H](NC(=O)CCCCCCCCCCCCCCCCCCC(=O)O)C(=O)O)C(=O)O)C(C)C)CCC1)C(N)=O` [Peptide 273, Eicosanedioyl-γGlu-Glu-OEG-OEG-Gly-Gln-His-Trp-Ala-Val-ACBA-His-Leu-Nle-NH2] ({C20 diacid-γGlu-γGlu-AEEA-AEEA}-GQHWAV[X1]HL[Nle]-NH2) showed an EC50 [2] of 12.3 nM.

— US20260176319A1, “PEPTIDE ANALOGS AND METHODS OF USING THE SAME” (Kallyope, Inc., priority 2024, published 2026)
